Reference: ChEMBL document CHEMBL5365482, “Rational Design of Sulfonyl-γ-AApeptides as Highly Potent HIV-1 Fusion Inhibitors with Broad-Spectrum Activity” (J Med Chem, 2023)

Columns and labels:
[1] = system: Human immunodeficiency virus 1; test: Antiviral activity against HIV1 IIIB infected in human MT2 cells assessed as inhibition of viral growth incubated for 30 mins by ELISA assay; assay type: functional, organism-based; details: Human immunodeficiency virus 1, IIIB, MT2, 0.5 h
[2] = Cytotoxicity against human MT2 cells assessed as inhibition of cell growth measured after 3 days by CCK8 assay; assay type: toxicity, cell-based; details: time 3 day
[3] = Selectivity index, ratio of CC50 for human MT2 cells to IC50 for HIV1 IIIB infected in human MT2 cells; assay type: toxicity, cell-based; details: read-out: Ratio CC50/IC50
[4] = system: Human immunodeficiency virus 1; test: Antiviral activity against HIV1 CRF02_AG Clone 278 clinical isolate infected in human TZM-bl cells assessed as inhibition of viral growth incubated for 48 hrs by luciferase based analysis; assay type: functional, organism-based; details: Human immunodeficiency virus 1, CRF02_AG Clone 278, TZM-bl
[5] = system: Human immunodeficiency virus 1; test: Antiviral activity against HIV1 QD435.100MENV.E1 clinical isolate infected in human TZM-bl cells assessed as inhibition of viral growth incubated for 48 hrs by luciferase based analysis; assay type: functional, organism-based; details: Human immunodeficiency virus 1, QD435.100MENV.E1, TZM-bl
[6] = system: Human immunodeficiency virus 1; test: Antiviral activity against HIV1 CRF02_AG Clone 33 clinical isolate infected in human TZM-bl cells assessed as inhibition of viral growth incubated for 48 hrs by luciferase based analysis; assay type: functional, organism-based; details: Human immunodeficiency virus 1, CRF02_AG Clone 33, TZM-bl
[7] = system: Human immunodeficiency virus 1; test: Antiviral activity against HIV1 Q259env.w6 clinical isolate infected in human TZM-bl cells assessed as inhibition of viral growth incubated for 48 hrs by luciferase based analysis; assay type: functional, organism-based; details: Human immunodeficiency virus 1, Q259env.w6, TZM-bl
[8] = system: Human immunodeficiency virus 1; test: Antiviral activity against HIV1 QA013.701.ENV.M12 clinical isolate infected in human TZM-bl cells assessed as inhibition of viral growth incubated for 48 hrs by luciferase based analysis; assay type: functional, organism-based; details: Human immunodeficiency virus 1, QA013.701.ENV.M12, TZM-bl
[9] = system: Human immunodeficiency virus 1; test: Antiviral activity against HIV1 X4 […] MN/H9 (84US_MNp) clinical isolate infected in human MT2 cells assessed as inhibition of viral growth incubated for 30 mins by ELISA assay; assay type: functional, organism-based; details: Human immunodeficiency virus 1, X4 […] MN/H9 (84US_MNp), MT2, 0.5 h
[10] = system: Human immunodeficiency virus 1; test: Antiviral activity against HIV1 R5 […] US4/GS 007 (91US_4) clinical isolate infected in human CEMx174 5.25M7 cells assessed as inhibition of viral growth incubated for 30 mins by ELISA assay; assay type: functional, organism-based; details: Human immunodeficiency virus 1, R5 […] US4/GS 007 (91US_4), CEMx174 5.25M7, 0.5 h
[11] = Apparent permeability of the compound across gastrointestinal tract in PBS buffer at pH 5 at 50 uM by PAMPA analysis; assay type: ADME, tissue-based; details: for Papp at 50 µM: PAMPA, pH 5
[12] = Apparent permeability of the compound across gastrointestinal tract in PBS buffer at pH 6.2 at 50 uM by PAMPA analysis; assay type: ADME, tissue-based; details: for Papp at 50 µM: PAMPA, pH 6.2
[13] = Apparent permeability of the compound across gastrointestinal tract in PBS buffer at pH 7.4 at 50 uM by PAMPA analysis; assay type: ADME, tissue-based
[14] = Apparent permeability of the compound across blood brain barrier in PBS buffer at pH 7.4 at 25 uM by PAMPA analysis; assay type: ADME, tissue-based
[15] = Stability of compound in ammonium bicarbonate buffer at pH 7.8 at 0.1 mg/ml incubated for 24 hrs under at 37 degreeC in presence of pronase by HPLC analysis; assay type: physicochemical; details: pH 7.8, 24 h
in vitro = details: PAMPA, pH 7.4
Description: Apparent permeability of the compound across blood brain barrier in PBS buffer at pH 7.4 at 250 uM by PAMPA analysis

[16] = Apparent permeability of the compound across gastrointestinal tract in PBS buffer at pH 7.4 at 200 uM by PAMPA analysis; assay type: ADME, tissue-based
[17] = Apparent permeability of the compound across gastrointestinal tract in PBS buffer at pH 5 at 200 uM by PAMPA analysis; assay type: ADME, tissue-based
[18] = Apparent permeability of the compound across gastrointestinal tract in PBS buffer at pH 6.2 at 200 uM by PAMPA analysis; assay type: ADME, tissue-based
[19] = target: T1, Envelope glycoprotein gp160 (Human immunodeficiency virus 1, UniProt Q72502); test: Binding affinity to HIV1 GP41 using GP41 NHR derived N36 peptide assessed as binding constant by fluorescence polarization assay
[20] = target: T1, Envelope glycoprotein gp160; test: Binding affinity to HIV1 GP41 using GP41 NHR derived N36 peptide assessed as binding constant in presence of C34 by fluorescence polarization assay
[21] = Apparent permeability of the compound across blood brain barrier in PBS buffer at pH 7.4 at 15 uM by PAMPA analysis; assay type: ADME, tissue-based

T1 sequence (Q72502 whole entry): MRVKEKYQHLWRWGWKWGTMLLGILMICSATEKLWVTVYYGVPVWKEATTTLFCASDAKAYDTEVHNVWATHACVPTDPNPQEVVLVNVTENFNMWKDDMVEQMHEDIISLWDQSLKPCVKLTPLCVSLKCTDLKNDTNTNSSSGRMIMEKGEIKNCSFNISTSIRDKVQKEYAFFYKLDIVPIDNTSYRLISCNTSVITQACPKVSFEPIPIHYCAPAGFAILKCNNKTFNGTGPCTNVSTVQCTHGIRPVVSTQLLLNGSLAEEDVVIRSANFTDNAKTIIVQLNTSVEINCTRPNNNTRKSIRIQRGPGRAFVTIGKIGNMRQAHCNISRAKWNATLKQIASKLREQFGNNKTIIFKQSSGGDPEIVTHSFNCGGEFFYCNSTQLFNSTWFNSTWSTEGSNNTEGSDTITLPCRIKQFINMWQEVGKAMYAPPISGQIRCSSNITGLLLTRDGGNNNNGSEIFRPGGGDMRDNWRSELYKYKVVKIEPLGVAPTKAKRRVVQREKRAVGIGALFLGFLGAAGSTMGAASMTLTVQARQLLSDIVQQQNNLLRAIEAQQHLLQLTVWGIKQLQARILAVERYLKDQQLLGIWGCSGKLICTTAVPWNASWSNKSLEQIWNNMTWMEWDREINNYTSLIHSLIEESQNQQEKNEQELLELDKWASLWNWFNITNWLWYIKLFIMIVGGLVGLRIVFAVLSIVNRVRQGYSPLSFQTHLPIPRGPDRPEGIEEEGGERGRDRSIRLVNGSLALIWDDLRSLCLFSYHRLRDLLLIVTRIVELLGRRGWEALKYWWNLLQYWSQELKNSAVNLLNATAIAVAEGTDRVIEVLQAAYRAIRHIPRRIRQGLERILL

| Compound | IC50 [1] [µM] | CC50 at 72 h [2] [µM] | selectivity ratio [3] | IC50 [4] [µM] | IC50 [5] [µM] | IC50 [6] [µM] | IC50 [7] [µM] | IC50 [8] [µM] | IC50 [9] [µM] | IC50 [10] [µM] | Papp at 50 µM [13] [nm/s] | other results |
| --- | --- | --- | --- | --- | --- | --- | --- | --- | --- | --- | --- | --- |
| CCCCCCCCCCCCCCCCCC(=O)NCCCC[C@H](NC(=O)CN(C[C@H](CC(C)C)NC(=O)CN(C[C@H](CCC(=O)O)NC(=O)CN(C[C@@H](NC(=O)CN(C[C@H](CCCCN)NC(=O)CN(C[C@H](Cc1ccc(O)cc1)NC(=O)CN(C[C@H](CCC(=O)O)NC(=O)CN(C[C@@H](NC(=O)CN(C[C@H](CCCCN)NC(=O)CN(C[C@H](Cc1c[nH]c2ccccc12)NC(=O)CN(C[C@H](CCC(=O)O)NC(=O)CN(C[C@H](Cc1c[nH]c2ccccc12)NC(=O)CN(C[C@H](CCSC)NC(C)=O)S(=O)(=O)CC(C)C)S(=O)(=O)CC(C)C)S(=O)(=O)c1ccc(C(=O)O)cc1)S(=O)(=O)CC(C)C)S(=O)(=O)CCN)[C@H](C)CC)S(=O)(=O)CC(C)C)S(=O)(=O)c1ccc(C(=O)O)cc1)S(=O)(=O)CC(C)C)S(=O)(=O)CCN)[C@H](C)CC)S(=O)(=O)CC(C)C)S(=O)(=O)c1ccc(C(=O)O)cc1)S(=O)(=O)CC(C)C)C(N)=O | 0.98 | > 40 | > 41 | 0.089 | 0.0849 | 0.124 | 0.154 | 0.0467 | 0.0813 | 0.0878 | 3900 | Papp at 50 µM [11]: 6020 nm/s; Papp at 50 µM [12]: 6170 nm/s; Papp at 25 µM [14]: 2340 nm/s |
| CC[C@@H](C)[C@@H](CN(CC(=O)N[C@@H](CCC(=O)O)CN(CC(=O)N[C@@H](CC(C)C)CN(CC(N)=O)S(=O)(=O)CC(C)C)S(=O)(=O)c1ccc(C(=O)O)cc1)S(=O)(=O)CC(C)C)NC(=O)CN(C[C@H](CCCCN)NC(=O)CN(C[C@H](Cc1ccc(O)cc1)NC(=O)CN(C[C@H](CCC(=O)O)NC(=O)CN(C[C@@H](NC(=O)CN(C[C@H](CCCCN)NC(=O)CN(C[C@H](Cc1c[nH]c2ccccc12)NC(=O)CN(C[C@H](CCC(=O)O)NC(=O)CN(C[C@H](Cc1c[nH]c2ccccc12)NC(=O)CN(C[C@H](CCSC)NC(C)=O)S(=O)(=O)CC(C)C)S(=O)(=O)CC(C)C)S(=O)(=O)c1ccc(C(=O)O)cc1)S(=O)(=O)CC(C)C)S(=O)(=O)CCN)[C@H](C)CC)S(=O)(=O)CC(C)C)S(=O)(=O)c1ccc(C(=O)O)cc1)S(=O)(=O)CC(C)C)S(=O)(=O)CCN | 30 | > 40 | > 1.3 | – | – | – | – | – | – | – | – | Stability [15]: Stable |
| Cn1c(=O)c2[nH]cnc2n(C)c1=O.O [THEOPHYLLINE] | – | – | – | – | – | – | – | – | – | – | – | Papp at 250 µM (in vitro): < 100 nm/s |
| CC[C@@H](C)[C@@H](CN(CC(=O)N[C@@H](CCC(=O)O)CN(CC(=O)N[C@@H](CC(C)C)CN(CC(N)=O)S(=O)(=O)CC(C)C)S(=O)(=O)c1ccc(C(=O)O)cc1)S(=O)(=O)CC(C)C)NC(=O)CN(C[C@H](CCCCN)NC(=O)CN(C[C@H](Cc1ccc(O)cc1)NC(=O)CN(C[C@H](CCC(=O)O)NC(=O)CN(C[C@@H](NC(=O)CN(C[C@H](CCCCN)NC(=O)CN(C[C@H](Cc1c[nH]c2ccccc12)NC(=O)CN(C[C@H](CCC(=O)O)NC(=O)CN(C[C@H](Cc1c[nH]c2ccccc12)NC(=O)CN(C[C@H](CCSC)NC(C)=O)S(=O)(=O)c1ccc(OC)cc1)S(=O)(=O)CC(C)C)S(=O)(=O)c1ccc(C(=O)O)cc1)S(=O)(=O)CC(C)C)S(=O)(=O)CCN)[C@H](C)CC)S(=O)(=O)CC(C)C)S(=O)(=O)c1ccc(C(=O)O)cc1)S(=O)(=O)CC(C)C)S(=O)(=O)CCN | 4 | > 40 | > 10 | – | – | – | – | – | – | – | – | Stability [15]: Stable |
| NC(=O)N1c2ccccc2C=Cc2ccccc21 [CARBAMAZEPINE] | – | – | – | – | – | – | – | – | – | – | 1520 | Papp ([11]; pampa, pH 5, 50 µM): 134.41 10^-6 cm/s; Papp ([12]; pampa, pH 6.2, 50 µM): 141.28 10^-6 cm/s; Papp at 200 µM [16]: < 10 nm/s |
| Cc1cc(=O)n(-c2ccccc2)n1C [ANTIPYRINE] | – | – | – | – | – | – | – | – | – | – | – | Papp at 200 µM [17]: < 10 nm/s; Papp at 200 µM [18]: < 10 nm/s |
| CCCCCCCCCCCCCCCCCC(=O)NCCCC[C@H](NC(=O)CN(C[C@H](CC(C)C)NC(=O)CN(C[C@H](CCC(=O)O)NC(=O)CN(C[C@@H](NC(=O)CN(C[C@H](CCCCN)NC(=O)CN(C[C@H](Cc1ccc(O)cc1)NC(=O)CN(C[C@H](CCC(=O)O)NC(=O)CN(C[C@@H](NC(=O)CN(C[C@H](CCCCN)NC(=O)CN(C[C@H](Cc1c[nH]c2ccccc12)NC(=O)CN(C[C@H](CCC(=O)O)NC(=O)CN(C[C@H](Cc1c[nH]c2ccccc12)NC(=O)CN(C[C@H](CCSC)NC(C)=O)S(=O)(=O)c1ccc(OC)cc1)S(=O)(=O)CC(C)C)S(=O)(=O)c1ccc(C(=O)O)cc1)S(=O)(=O)CC(C)C)S(=O)(=O)CCN)[C@H](C)CC)S(=O)(=O)CC(C)C)S(=O)(=O)c1ccc(C(=O)O)cc1)S(=O)(=O)CC(C)C)S(=O)(=O)CCN)[C@H](C)CC)S(=O)(=O)CC(C)C)S(=O)(=O)c1ccc(C(=O)O)cc1)S(=O)(=O)CC(C)C)C(N)=O | 0.18 | 19.3 | 106 | 0.0604 | 0.0853 | 0.0647 | 0.0844 | 0.061 | 0.94 | 0.0888 | 5200 | Kd [19]: 0.67 µM; Kd [20]: > 46 µM; Papp at 50 µM [11]: 6100 nm/s; Papp at 50 µM [12]: 5220 nm/s; Papp at 15 µM [21]: 2560 nm/s |
| enfuvirtide | – | – | – | 0.0284 | 0.072 | 0.0284 | 0.0508 | 0.0065 | 0.003 | 0.0157 | – | – |
